The target of this assay is T1, MAGL (Homo sapiens, UniProt Q99685).
T1 sequence (Q99685 1-303): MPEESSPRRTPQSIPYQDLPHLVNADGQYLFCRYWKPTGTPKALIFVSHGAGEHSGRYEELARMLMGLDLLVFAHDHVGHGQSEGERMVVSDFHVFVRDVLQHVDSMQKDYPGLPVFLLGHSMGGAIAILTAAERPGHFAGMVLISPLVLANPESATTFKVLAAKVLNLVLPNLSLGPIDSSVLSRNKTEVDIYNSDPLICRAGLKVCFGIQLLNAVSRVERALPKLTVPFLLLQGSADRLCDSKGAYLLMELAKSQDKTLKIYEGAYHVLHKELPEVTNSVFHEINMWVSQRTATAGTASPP
The assay can be described thus: 2-AG assay: MAGL inhibitory activity by hydrolysis of 2-arachidonoylglycerol to arachidonic acid, followed by mass spectrometry. The class given is biochemical. The conditions noted are these: 15 min preincubation, 30 min reaction at RT, 8 μM 2-arachidonoylglycerol.
Regarding `O=C1NC2(CO1)CN(C(=O)N1CC3(CC(Oc4ccc(C(F)(F)F)nn4)C3)C1)C2` [Example 76, 2-[6-[6-(trifluoromethyl)pyrida-zin-3-yl]oxy-2-azaspiro[3.3]heptane-2-carbonyl]-7-oxa-2,5-diazaspiro[3.4]octan-6-one], half-maximal inhibition (IC50) required 8.33 nM.

In turn, `CS(=O)(=O)c1ccc(CC2CCC3(C2)CN(C(=O)N2CC4(COC(=O)N4)C2)C3)cc1` (centres unmarked) [Example 77, 2-[6-(4-mesylbenzyl)-2-azaspiro[3.4]octane-2-carbonyl]-7-oxa-2,5-diazaspiro[3.4]octan-6-one] displayed an IC50 of 0.91 nM. The result for `O=C1NC2(CO1)CN(C(=O)N1CC3(CC(c4cnc(C(F)(F)F)nc4)C3)C1)C2` [Example 78, 2-[6-[2-(trifluoromethyl)pyrimi-din-5-yl]-2-azaspiro[3.3]heptane-2-carbonyl]-7-oxa-2,5-diazaspiro[3.4]octan-6-one] reads 2.3 nM. With `O=C1NC2(CO1)CN(C(=O)N1CC3(CC(c4ccc(C(F)(F)F)nc4)C3)C1)C2` [Example 79, 2-[6-[6-(trifluoromethyl)-3-pyridyl]-2-azaspiro[3.3]heptane-2-carbonyl]-7-oxa-2,5-diazaspiro[3.4]octan-6-one], half-maximal inhibition (IC50) required 3.79 nM. The result for `O=C1NC2(CO1)CN(C(=O)N1CC3(CC(N4CC(C(F)(F)F)C4)C3)C1)C2` [Example 80, 2-[6-[3-(trifluoromethyl)azetidin-1-y1]-2-azaspiro[3.3]heptane-2-carbonyl]-7-oxa-2,5-diazaspiro[3.4]octan-6-one] reads 6.19 nM. Compound `O=C1NC2(CO1)CN(C(=O)N1CC3(CC(N4CC(CC(F)(F)F)C4)C3)C1)C2` [Example 81, 2-[6-[3-(2,2,2-trifluoroethyl)azetidin-1-y1]-2-azaspiro[3.3]heptane-2-carbonyl]-7-oxa-2,5-diazaspiro[3.4]octan-6-one] returned a half-inhibitory concentration (IC50) of 7.62 nM. The result for `O=C1CCC2(CN(C(=O)N3CC4(CCN(Cc5ccc(S(=O)(=O)C(F)(F)F)cc5)CC4)C3)C2)N1` [Example 82, 2-[7-(4-triflylbenzyl)-2,7-diazaspiro[3.5]nonane-2-carbonyl]-2,5-diazaspiro[3.4]octan-6-one] reads 5.58 nM; that for `O=C1COCC2(CN(C(=O)N3CC4(CCN(Cc5ccc(S(=O)(=O)C(F)(F)F)cc5)CC4)C3)C2)N1` [Example 83, 2-[7-(4-triflylbenzyl)-2,7-diazaspiro[3.5]nonane-2-carbonyl]-8-oxa-2,5-diazaspiro[3.5]nonan-6-one], 24.2 nM.

As to `O=C1NC2(CO1)CN(C(=O)N1CC3(CCN(Cc4ccc(S(=O)(=O)C(F)(F)F)cc4)CC3)C1)C2` [Example 84, 2-[7-(4-triflylbenzyl)-2,7-diazaspiro[3.5]nonane-2-carbonyl]-7-oxa-2,5-diazaspiro[3.4]octan-6-one], half-maximal inhibition (IC50) required 0.99 nM. `O=C1NC2(CO1)CN(C(=O)N1CC3(CN(Cc4ccc(S(=O)(=O)C(F)(F)F)cc4)C3)C1)C2` [Example 85, 2-[6-(4-triflylbenzyl)-2,6-diazaspiro[3.3]heptane-2-carbonyl]-7-oxa-2,5-diazaspiro[3.4]octan-6-one] showed a half-inhibitory concentration (IC50) of 0.94 nM. In the case of `O=C1COCC2(CN(C(=O)N3CC4(C3)CN(S(=O)(=O)c3cccc(OC(F)(F)F)c3)C4)C2)N1` [Example 86, 2-[2-[3-(trifluoromethoxy)phenyl]sulfony1-2,6-diazaspiro[3.3]heptane-6-carbonyl]-8-oxa-2,5-diazaspiro[3.5]nonan-6-one], it took 984 nM to reach half-maximal inhibition (IC50). In turn, `O=C1COCC2(CN(C(=O)N3CC4(CCC(Cc5ccc(C(F)(F)F)cn5)CC4)C3)C2)N1` [Example 87, 2-[7-[[5-(trifluoromethyl)-2-pyridyl]methyl]-2-azaspiro[3.5]nonane-2-carbonyl]-8-oxa-2,5-diazaspiro[3.5]nonan-6-one] registered an IC50 of 6.42 nM. `O=C1COCC2(CN(C(=O)N3CC4(CCC(OCC5(C(F)(F)F)CC5)CC4)C3)C2)N1` [Example 88, 2-[7-[[1-(trifluoromethyl)cyclopro-pyl]methoxy]-2-azaspiro[3.5]nonane-2-carbonyl]-8-oxa-2,5-diazaspiro[3.5]nonan-6-one] came in with a half-inhibitory concentration (IC50) of 13.5 nM. The compound `O=C1COCC2(CN(C(=O)N3CC4(CC(CNC5(C(F)(F)F)CC5)C4)C3)C2)N1` [Example 89, 2-[6-[[[1-(trifluoromethyl)cyclopro-pyl]amino]methyl]-2-azaspiro[3.3]heptane-2-carbonyl]-8-oxa-2,5-diazaspiro[3.5]nonan-6-one] registered a 50% inhibitory concentration (IC50) of 29.7 nM. `O=C1CCC2(CN(C(=O)N3CCC4(CC3)CN(Cc3ccc(C(F)(F)F)cc3F)C4)C2)N1` [Example 90, 2-[2-[2-fluoro-4-(trifluoromethyl)benzyl]-2,7-diazaspiro[3.5]nonane-7-carbonyl]-2,5-diazaspiro[3.4]octan-6-one] displayed a concentration for half-maximal inhibition (IC50) of 19.1 nM.

Compound `O=C1NC2(CCO1)CN(C(=O)N1CCC3(CC1)CN(Cc1ccc(C(F)(F)F)cc1F)C3)C2` [Example 91, 2-[2-[2-fluoro-4-(trifluoromethyl)benzyl]-2,7-diazaspiro[3.5]nonane-7-carbonyl]-7-oxa-2,5-diazaspiro[3.5]nonan-6-one] returned an IC50 of 635 nM. The result for `O=C1NC2(CO1)CN(C(=O)N1CCC3(CC1)CN(Cc1ccc(C(F)(F)F)cc1F)C3)C2` [Example 92, 2-[2-[2-fluoro-4-(trifluoromethyl)benzyl]-2,7-diazaspiro[3.5]nonane-7-carbonyl]-7-oxa-2,5-diazaspiro[3.4]octan-6-one] reads 0.65 nM. With `O=C1NCC2(CN(C(=O)N3CCC4(CC3)CN(Cc3ccc(C(F)(F)F)cc3F)C4)C2)N1` [Example 93, 2-[2-[2-fluoro-4-(trifluoromethyl)benzyl]-2,7-diazaspiro[3.5]nonane-7-carbonyl]-2,5,7-triazaspiro[3.4]octan-6-one], the IC50 was 142 nM. The figure for `O=C1NC2(CO1)CN(C(=O)N1CC3(CC(NCc4ccc(C(F)(F)F)cc4F)C3)C1)C2` [Example 94] is 1.08 nM; for `O=C1NC2(CO1)CN(C(=O)N1CC3(CCC(Nc4ccc(C(F)(F)F)cn4)CC3)C1)C2` [Example 95, 2-[7-[[5-(trifluoromethyl)-2-pyridyl]amino]-2-azaspiro[3.5]nonane-2-carbonyl]-7-oxa-2,5-diazaspiro[3.4]octan-6-one] it is 0.37 nM; for `CN(c1cnc(C(F)(F)F)cn1)C1CCC2(CC1)CN(C(=O)N1CC3(COC(=O)N3)C1)C2` [Example 96, 2-[7-[methyl-[5-(trifluoromethyl)pyrazin-2-yl]amino]-2-azaspiro[3.5]nonane-2-carbonyl]-7-oxa-2,5-diazaspiro[3.4]octan-6-one] it is 1.88 nM. In the case of `O=C1NC2(CO1)CN(C(=O)N1CC3(CCC(Cc4ccc(Cl)cn4)CC3)C1)C2` [Example 97, 2-[7-[(5-chloro-2-pyridyl)methyl]-2-azaspiro[3.5]nonane-2-carbonyl]-7-oxa-2,5-diazaspiro[3.4]octan-6-one], the half-maximal inhibitory concentration (IC50) amounted to 0.15 nM. The figure for `O=C1NC2(CO1)CN(C(=O)N1CC3(CCC(Nc4cnc(C(F)(F)F)cn4)CC3)C1)C2` [Example 98, 2-[7-[[5-(trifluoromethyl)pyrazin-2-yl]amino]-2-azaspiro[3.5]nonane-2-carbonyl]-7-oxa-2,5-diazaspiro[3.4]octan-6-one] is 1.75 nM. Turning to `CS(=O)(=O)c1cc(F)ccc1OC1CCC2(CC1)CN(C(=O)N1CC3(COC(=O)N3)C1)C2` [Example 99, 2-[7-(4-fluoro-2-mesyl-phenoxy)-2-azaspiro[3.5]nonane-2-carbonyl]-7-oxa-2,5-diazaspiro[3.4]octan-6-one], half-maximal inhibition (IC50) was put at 3.09 nM.

Consider `O=C1NC2(CO1)CN(C(=O)N1CC3(CCC(Cc4ccc(C(F)(F)F)nc4)CC3)C1)C2` [Example 101, 2-[7-[[6-(trifluoromethyl)-3-pyridyl]methyl]-2-azaspiro[3.5]nonane-2-carbonyl]-7-oxa-2,5-diazaspiro[3.4]octan-6-one], for which the 50% inhibitory concentration (IC50) stood at 0.18 nM. As to `O=C1CCC2(CN(C(=O)N3CC4(CCC(Cc5cnc(C(F)(F)F)cn5)CC4)C3)C2)N1` [Example 102, 2-[7-[[5-(trifluoromethyl)pyrazin-2-yl]methyl]-2-azaspiro[3.5]nonane-2-carbonyl]-2,5-diazaspiro[3.4]octan-6-one], half-maximal inhibition (IC50) required 10.8 nM. The result for `O=C1NC2(CO1)CN(C(=O)N1CC3(CCC(Cc4ncc(F)cc4F)C3)C1)C2` (centres unmarked) [Example 103, 2-[6-[(3,5-difluoro-2-pyridyl)methyl]-2-azaspiro[3.4]octane-2-carbonyl]-7-oxa-2,5-diazaspiro[3.4]octan-6-one] reads 0.28 nM. The figure for `O=C1NC2(CO1)CN(C(=O)N1CC3(CCC(Cc4ccc(OC(F)F)nc4)CC3)C1)C2` [Example 105, 2-[7-[[6-(difluoromethoxy)-3-pyridyl]methyl]-2-azaspiro[3.5]nonane-2-carbonyl]-7-oxa-2,5-diazaspiro[3.4]octan-6-one] is 0.05 nM. As to `O=C1NC2(CO1)CN(C(=O)N1CC3(CCC(Oc4cc(Cl)ccc4Cl)CC3)C1)C2` [Example 106, 2-[7-(2,5-dichlorophenoxy)-2-azaspiro[3.5]nonane-2-carbonyl]-7-oxa-2,5-diazaspiro[3.4]octan-6-one], inhibition was half-maximal at 0.05 nM (IC50). The figure for `O=C1NC2(CO1)CN(C(=O)N1CC3(CC(c4ccc(C(F)(F)F)cc4F)C3)C1)C2` [Example 107] is 0.08 nM; for `O=C1NC2(CO1)CN(C(=O)N1CC3(CCC(Cc4ncc(F)cc4F)CC3)C1)C2` [Example 108, 2-[7-[(3,5-difluoro-2-pyridyl)methyl]-2-azaspiro[3.5]nonane-2-carbonyl]-7-oxa-2,5-diazaspiro[3.4]octan-6-one] it is 0.18 nM. The result for `CS(=O)(=O)c1ccc(CC2CCC3(C2)CN(C(=O)N2CC4(COC(=O)N4)C2)C3)cc1C(F)(F)F` (centres unmarked) [Example 109, 2-[6-[4-mesyl-3-(trifluoromethyl)benzyl]-2-azaspiro[3.4]octane-2-carbonyl]-7-oxa-2,5-diazaspiro[3.4]octan-6-one] reads 0.21 nM.

For the origin of these results see patent US20240383904A1, “HETEROCYCLIC COMPOUNDS” (Hoffmann-La Roche Inc., priority 2021, published 2024).
